The target of the assay is T1, TwKO (Tripterygium wilfordii, UniProt A0A2S0H3R9).
T1 construct: full-length ORF co-expressed from pESC-Leu with a TwCPR (all four tested, TwCPR3 best) in Saccharomyces cerevisiae BY-T20; with NADPH--cytochrome P450 reductase 3
Description: GC-MS of methylated yeast culture extracts. The conditions noted are these: co-expressed TwCPR; substrate made in vivo by TwCPS3/TwKSL2:A608M; product ent-kaurenoic acid; 30 °C. It is filed as cell-based.

T1 sequence (A0A2S0H3R9 1-509): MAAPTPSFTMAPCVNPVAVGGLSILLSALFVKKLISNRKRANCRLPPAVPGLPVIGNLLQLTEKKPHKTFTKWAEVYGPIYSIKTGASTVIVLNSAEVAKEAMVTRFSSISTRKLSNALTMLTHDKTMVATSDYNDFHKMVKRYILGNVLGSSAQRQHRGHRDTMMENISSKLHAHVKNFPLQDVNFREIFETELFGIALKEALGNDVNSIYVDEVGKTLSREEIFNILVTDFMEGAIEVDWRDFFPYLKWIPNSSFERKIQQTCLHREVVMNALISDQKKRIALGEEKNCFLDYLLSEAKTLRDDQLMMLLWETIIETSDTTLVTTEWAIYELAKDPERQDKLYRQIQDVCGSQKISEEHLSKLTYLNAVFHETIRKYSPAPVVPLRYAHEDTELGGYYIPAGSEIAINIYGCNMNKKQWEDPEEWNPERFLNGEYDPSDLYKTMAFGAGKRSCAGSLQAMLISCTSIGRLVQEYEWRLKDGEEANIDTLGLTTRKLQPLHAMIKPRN
T1 sequence (A0A808MGE5 1-690 partner): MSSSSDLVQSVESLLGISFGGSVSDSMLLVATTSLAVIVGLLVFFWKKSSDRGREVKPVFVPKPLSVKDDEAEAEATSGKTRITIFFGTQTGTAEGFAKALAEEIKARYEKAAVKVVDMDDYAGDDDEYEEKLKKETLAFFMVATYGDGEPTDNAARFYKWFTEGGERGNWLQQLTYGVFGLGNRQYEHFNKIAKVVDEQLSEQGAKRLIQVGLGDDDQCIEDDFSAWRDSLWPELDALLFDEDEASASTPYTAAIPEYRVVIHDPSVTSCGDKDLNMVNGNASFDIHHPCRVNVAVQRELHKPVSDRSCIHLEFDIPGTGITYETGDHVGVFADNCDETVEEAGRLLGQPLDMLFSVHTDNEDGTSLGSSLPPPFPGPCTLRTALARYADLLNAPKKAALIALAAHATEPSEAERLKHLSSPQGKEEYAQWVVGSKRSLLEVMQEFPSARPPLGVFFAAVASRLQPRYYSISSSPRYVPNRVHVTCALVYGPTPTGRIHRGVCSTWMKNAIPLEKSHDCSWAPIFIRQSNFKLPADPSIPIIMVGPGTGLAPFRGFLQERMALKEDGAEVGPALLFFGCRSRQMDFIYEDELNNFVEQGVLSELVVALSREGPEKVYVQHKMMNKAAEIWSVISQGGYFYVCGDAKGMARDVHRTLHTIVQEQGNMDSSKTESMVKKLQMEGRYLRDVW

As for `C=C1C[C@@]23CC[C@@H]4C(C)(C)CCC[C@@]4(C)[C@@H]2CC[C@@H]1C3` [ent-kaurene], the “GC-MS of methylated yeast culture extracts” value is “three-stage oxidation of ent-kaurene to ent-kaurenoic acid”.

For the origin of these results see paper PMC5645531, “Probing the Single Key Amino Acid Responsible for the Novel Catalytic Function of ent-Kaurene Oxidase Supported by NADPH-Cytochrome P450 Reductases in Tripterygium wilfordii” (Frontiers in Plant Science, 2017).
